Assay results: publication PMC9965165, “3D-Printing of Capsule Devices as Compartmentalization Tools for Supported Reagents in the Search of Antiproliferative Isatins” (Pharmaceuticals, 2023)
Read-outs that look alike come from different tables or passages of the source.

Columns and labels:
HBL-100 cell line = test system: HBL-100 cell line; set-up: method as in doi:10.1002/ajoc.202100684; conditions: HBL-100 line; cited from earlier work
[1] = test system: murine 3T3 Balb fibroblast cells; assay: CCK8 antiproliferation / cytotoxicity assay in 3T3 Balb fibroblasts; assay type: cell-based; conditions: CCK-8 assay, murine fibroblast 3T3 Balb cells
Protocol: (§1) The cytotoxic activity of these new synthesized isatin derivatives was evaluated by means of the CCK8 antiproliferation assay in vitro in two different cell lines: cancerous cervical HeLa and murine 3T3 Balb fibroblast cells. The latter cell line is typically used to analyze the potential toxicity of (nano)materials thanks to their sensitivity. […] It can be observed that fibroblast cells were more sensitive to the presence of isatin derivatives than the cancerous cells in general HeLa ones, probably related to the enhanced replication rate of the tumoral cells. Analysis of the experimental data shown in Figure 6 allowed the determination of IC50 values (see Table 3 and Table 4). […] [65, 66] Compounds 26 and 33 are, therefore, new promising hits for further development.
(§2) Cervical HeLa cancer cells and 3T3 mouse fibroblasts from Cell Biolabs (San Diego, CA, USA) were grown in standard culture conditions (5% CO2 at 37 °C) in DMEM supplemented with 10% (v/v) FBS, 2 mM L-glutamine, 1% (v/v) penicillin/streptomycin, 1 mM sodium pyruvate, and 0.1 mM MEM nonessential amino acids (NEAA).
(§3) Cytotoxicity of the synthesized isatin-based compounds was tested in vitro by means of the CCK-8 cytotoxicity assay. Cancerous cervical HeLa and 3T3 Balb fibroblasts cells were seeded into 96-well plates (1.0 × 10^4 cells/well) and grown for 24 h at an optical confluence of 80–90% under standard culture conditions in 100 μL growth medium. Bare cells were used as the negative control. After 24 h of incubation at 37 °C, 100 μL of NPs at 2.5 × 10^10 NP/mL in the corresponding cell culture medium were injected into the wells and incubated for 24 h and 48 h. After incubation, the culture medium was discarded, cells were washed with 10 mM PBS (pH 7.4) several times, and fresh culture medium (100 μL) containing 10 μL of CCK-8 reagent added to each well. After 2 h, the absorption at 450 nm of cell samples was measured with an UV-vis microplate absorbance reader (Bio-Rad model 689, USA). Cell viability (SR, survival rate) was calculated as follows: SR=Abssample/Absblank×100 where Abssample is the absorbance at 450 nm for cell samples, and Absblank is the absorbance corresponding to the sample controls without the particles.
(§4) For the determination of the half-maximal inhibitory concentration (IC50), a dose–response curve between the isatin derivatives’ concentrations and percent cell viability was plotted and fitted by means of a nonlinear least-squares fitting method (Microcal Origin 2021) to a four-parameter logistic equation: Y=min+((max−min)/1+10^((logIC50−X)×p)) where the original, %control or %survival data are represented by Y along their minimal (min) and maximal (max) values; the isatin derivative concentration is represented by X; IC50 is the concentration at 50% maximal value; and p is the slope factor.

[2] = test system: cancerous cervical HeLa cells; assay: CCK8 antiproliferation / cytotoxicity assay in HeLa cells; assay type: cell-based, human; conditions: for specificity for tumoral cells: HeLa versus 3T3 Balb fibroblasts; for IC50: CCK-8 assay, human cervical cancer HeLa cells
Protocol: as §1, §2, §3, §4

HeLa cell line = test system: HeLa cell line; set-up: method as in doi:10.1002/ajoc.202100684; conditions: cited from earlier work
cervical tumors = conditions: cited from earlier work
[3] = Pt-based chemodrug, first line treatment of primary cervical tumors
[4] = drugs used for recurrent and metastatic cervical cancer

| Compound | melting point | IC50 ([1]; Mus musculus) | IC50 ([2]; Homo sapiens, HeLa) | also measured |
| --- | --- | --- | --- | --- |
| CCCCN(C(=O)CCl)C1(C(=O)NC(C)(C)C)C(=O)Nc2ccc(I)cc21 (stereo not drawn) [Compound 12, N-(tert-butyl)-3-(N-butyl-2-chloroacetamido)-5-iodo-2-oxoindoline-3-carboxamide] | 108.5 to 109.7 °C | 1.3 ± 0.2 µM | 8.3 ± 0.8 µM | antiproliferative activity (HBL-100 cell line): potent antiproliferative activity; specificity for tumoral cells [2]: not showing fully specific toxic activity for cancerous cells; antiproliferative activity (HeLa cell line): potent antiproliferative activity |
| CCCCN(C(=O)CCl)C1(C(=O)NC(C)(C)C)C(=O)Nc2ccc([N+](=O)[O-])cc21 (stereo not drawn) [Compound 13, N-(tert-butyl)-3-(N-butyl-2-chloroacetamido)-5-nitro-2-oxoindoline-3-carboxamide] | 179.5 to 179.8 °C | 4.8 ± 0.9 µM | 26.9 ± 1 µM | – |
| CCCCN(C(=O)CCl)C1(C(=O)NC(C)(C)C)C(=O)Nc2c(Cl)cc(Cl)cc21 (stereo not drawn) [Compound 14, N-(tert-butyl)-3-(N-butyl-2-chloroacetamido)-5,7-dichloro-2-oxoindoline-3-carboxamide] | 125 to 126 °C | 1.5 ± 0.3 µM | 14.1 ± 0.3 µM | – |
| CCCCN(C(=O)C(F)(F)F)C1(C(=O)NC2CCCCC2)C(=O)Nc2ccc(Br)cc21 (stereo not drawn) [Compound 15, 5-bromo-3-(N-butyl-2,2,2-trifluoroacetamido)-N-cyclohexyl-2-oxoindoline-3-carboxamide] | 209 to 210 °C | 28.3 ± 1.7 µM | 47.7 ± 1.2 µM | – |
| CCCCN(C(=O)CCl)C1(C(=O)NC(C)(C)C)C(=O)Nc2ccc(Br)cc21 (stereo not drawn) [Compound 16, 5-Bromo-N-(tert-butyl)-3-(N-butyl-2-chloroacetamido)-2-oxoindoline-3-carboxamide] | 180 to 182 °C | 1.5 ± 0.8 µM | 17.9 ± 1.3 µM | – |
| O=C1C(=O)N(Cc2cn(Cc3ccccc3)nn2)c2ccc(I)cc21 [Compound 26] | – | 21.5 ± 2 µM | 2.5 ± 0.4 µM | specificity for tumoral cells [2]: high specificity for tumoral cells |
| COC(=O)/C=C/c1ccc2c(c1)C(=O)C(=O)N2Cc1ccccc1 [Compound 31] | – | 3.5 ± 0.8 µM | 6.8 µM | IC50 [2]: 8.8 ± 1.1 µM; specificity for tumoral cells [2]: not showing fully specific toxic activity for cancerous cells |
| N.N.O=C([O-])C1(C(=O)[O-])CCC1.[Pt+2] [carboplatin] | – | – | – | IC50 (cervical tumors; [3]): 1000 µM |
| N.N.[Cl][Pt][Cl] [cisplatin] | – | – | – | IC50 (cervical tumors; [3]): 15 µM |
| CC(=O)O[C@H]1C(=O)[C@@]2(C)[C@H]([C@H](OC(=O)c3ccccc3)[C@]3(O)C[C@H](OC(=O)[C@H](O)[C@@H](NC(=O)c4ccccc4)c4ccccc4)C(C)=C1C3(C)C)[C@]1(OC(C)=O)CO[C@@H]1C[C@@H]2O [paclitaxel] | – | – | – | IC50 (cervical tumors; [4]): 21 µM |
| CC[C@@]1(O)C(=O)OCc2c1cc1n(c2=O)Cc2cc3c(CN(C)C)c(O)ccc3nc2-1 [topotecan] | – | – | – | IC50 (cervical tumors; [4]): 26 µM |
| N-(tert-butyl)-3-(N-butyl-2-chloroacetamido)-1-methyl-2-oxoindoline-3-carboxamide [Compound 11] | – | – | – | IC50 [1]: 7.3 ± 0.7 µM; IC50 [2]: 40.1 ± 1.5 µM |

Continued, in another order:

| melting point | Compound | IC50 ([1]; Mus musculus) | IC50 ([2]; Homo sapiens, HeLa) | also measured |
| --- | --- | --- | --- | --- |
| 204 to 205 °C | CCCCN(C(=O)C(F)(F)F)C1(C(=O)NC(C)(C)C)C(=O)Nc2ccc(I)cc21 (stereo not drawn) [Compound 17, N-(tert-butyl)-3-(N-butyl-2,2,2-trifluoroacetamido)-5-iodo-2-oxoindoline-3-carboxamide] | 7.2 ± 0.5 µM | 33 ± 1.4 µM | – |
| 218 to 220 °C | CCCCN(C(=O)C(F)(F)F)C1(C(=O)NC2CCCCC2)C(=O)Nc2ccc(I)cc21 (stereo not drawn) [Compound 18, 3-(N-butyl-2,2,2-trifluoroacetamido)-N-cyclohexyl-5-iodo-2-oxoindoline-3-carboxamide] | 8.5 ± 0.7 µM | 6.8 ± 0.5 µM | – |
| 198 to 200 °C | CCCCN(C(=O)C(F)(F)F)C1(C(=O)NC(C)(C)C)C(=O)Nc2ccc(Br)cc21 (stereo not drawn) [Compound 19, 5-bromo-N-(tert-butyl)-3-(N-butyl-2,2,2-trifluoroacetamido)-2-oxoindoline-3-carboxamide] | 7.8 ± 0.4 µM | 16.8 ± 1.7 µM | – |
| 178 to 180 °C | CCCCN(C(=O)C(F)(F)F)C1(C(=O)NC(C)(C)C)C(=O)Nc2ccc([N+](=O)[O-])cc21 (stereo not drawn) [Compound 20, N-(tert-butyl)-3-(N-butyl-2,2,2-trifluoroacetamido)-5-nitro-2-oxoindoline-3-carboxamide] | 25 ± 1.9 µM | 26 ± 1.9 µM | – |
| 200 to 202 °C | CCCCN(C(=O)C(F)(F)F)C1(C(=O)NC2CCCCC2)C(=O)Nc2ccc([N+](=O)[O-])cc21 (stereo not drawn) [Compound 21, 3-(N-butyl-2,2,2-trifluoroacetamido)-N-cyclohexyl-5-nitro-2-oxoindoline-3-carboxamide] | 17 ± 0.7 µM | 12.4 ± 0.7 µM | – |
| 190.2 to 190.4 °C | CCCCN(C(=O)CCl)C1(C(=O)NC2CCCCC2)C(=O)Nc2ccc(Br)cc21 (stereo not drawn) [Compound 22, 5-bromo-3-(N-butyl-2-chloroacetamido)-N-cyclohexyl-2-oxoindoline-3-carboxamide] | 0.12 ± 0.01 µM | 27 ± 0.8 µM | – |
| 175 to 177 °C | O=C1C(=O)N(Cc2cn(Cc3ccccc3)nn2)c2ccccc21 [Compound 25] | 100 ± 3.1 µM | 13.9 ± 4.5 µM | – |
| 158 to 159 °C | CCOC(=O)Cn1cc(CN2C(=O)C(=O)c3cc(I)ccc32)nn1 [Compound 27] | 7.3 ± 0.7 µM | 66.9 ± 8.9 µM | – |
| 131 to 132 °C | COC(=O)/C=C/c1ccc2c(c1)C(=O)C(=O)N2CCC(=O)OC [Compound 30, methyl (E)-3-(1-(3-methoxy-3-oxopropyl)-2,3-dioxoindolin-5-yl)acrylate] | 42.1 ± 2.7 µM | 9.3 ± 0.8 µM | specificity for tumoral cells [2]: not showing fully specific toxic activity for cancerous cells |
| 228 to 230 °C | COC(=O)/C=C/c1ccc2c(c1)C(=O)C(=O)N2Cc1ccc(I)cc1 [Compound 32, methyl (E)-3-(1-(4-iodobenzyl)-2,3-dioxoindolin-5-yl)acrylate] | 32.1 ± 3.4 µM | 10.8 ± 0.9 µM | – |
| 188 to 190 °C | COC(=O)/C=C/c1ccc(CN2C(=O)C(=O)c3cc(/C=C/C(=O)OC)ccc32)cc1 [Compound 33, methyl (E)-3-(4-((5-((E)-3-methoxy-3-oxoprop-1-en-1-yl)-2,3-dioxoindolin-1-yl)methyl)phenyl)acrylate] | 12.6 ± 0.9 µM | 1 ± 0.05 µM | specificity for tumoral cells [2]: high specificity for tumoral cells |
